Reference: ChEMBL document CHEMBL1201861, “Genomics of Drug Sensitity in Cancer screening data, Wellcome Trust Sanger Institute”
pIC50: −log10 of the molar value.

Legend:
Experiment in all cases: cells
Format in all cases: functional, cell-based, Homo sapiens
MEL-HO = conditions: Homo sapiens, MEL-HO
Description: SANGER: Inhibition of human MEL-HO cell growth in a cell viability assay.

M059J = conditions: Homo sapiens, M059J;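 further: growth inhibition of M059J cells, read out with a cell viability assay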
Description: SANGER: Inhibition of human M059J cell growth in a cell viability assay.

NCI-H28 = conditions: Homo sapiens, NCI-H28;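 further: growth inhibition of human NCI-H28 cells, read out as cell viability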
Description: SANGER: Inhibition of human NCI-H28 cell growth in a cell viability assay.

SK-LU-1 = conditions: Homo sapiens, SK-LU-1;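 further: cell viability assay measuring growth inhibition of human SK-LU-1 cells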
Description: SANGER: Inhibition of human SK-LU-1 cell growth in a cell viability assay.

Kasumi 1 = conditions: Homo sapiens, Kasumi 1;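 further: growth inhibition of human Kasumi-1 cells, read out by a cell viability assay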
Description: SANGER: Inhibition of human KASUMI-1 cell growth in a cell viability assay.

BCPAP = conditions: Homo sapiens, BCPAP;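 further: growth inhibition of BCPAP cells, read out in a cell viability assay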
Description: SANGER: Inhibition of human BCPAP cell growth in a cell viability assay.

GMS-10 = conditions: Homo sapiens, GMS-10;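 further: growth inhibition of GMS-10 cells, read out as cell viability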
Description: SANGER: Inhibition of human GMS-10 cell growth in a cell viability assay.

CAL-85-1 = conditions: Homo sapiens, CAL-85-1;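 further: growth inhibition of human CAL-85-1 cells, read out with a cell viability assay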
Description: SANGER: Inhibition of human CAL-85-1 cell growth in a cell viability assay.

NCI-H630 = conditions: Homo sapiens, NCI-H630;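 further: growth inhibition of NCI-H630 cells, read out with a cell viability assay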
Description: SANGER: Inhibition of human NCI-H630 cell growth in a cell viability assay.

KYSE-510 = conditions: Homo sapiens, KYSE-510;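 further: cell viability readout used to measure how strongly growth of the cell line is suppressed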
Description: SANGER: Inhibition of human KYSE-510 cell growth in a cell viability assay.

NCI-H2052 = conditions: Homo sapiens, NCI-H2052;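 further: growth inhibition of NCI-H2052 cells, read out with a cell viability assay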
Description: SANGER: Inhibition of human NCI-H2052 cell growth in a cell viability assay.

OC-314 = conditions: Homo sapiens, OC-314
Description: SANGER: Inhibition of human OC-314 cell growth in a cell viability assay.

SNU-387 = conditions: Homo sapiens, SNU-387
Description: SANGER: Inhibition of human SNU-387 cell growth in a cell viability assay.

KNS-62 = conditions: Homo sapiens, KNS-62;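 further: inhibition of cell growth, read out with a cell viability assay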
Description: SANGER: Inhibition of human KNS-62 cell growth in a cell viability assay.

HCC1419 = conditions: Homo sapiens, HCC1419;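 further: growth inhibition of human HCC1419 cells, read out as cell viability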
Description: SANGER: Inhibition of human HCC1419 cell growth in a cell viability assay.

GAMG = conditions: Homo sapiens, GAMG;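 further: cell growth inhibition measured by a viability assay in the GAMG human cell line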
Description: SANGER: Inhibition of human GAMG cell growth in a cell viability assay.

COLO-680N = conditions: Homo sapiens, COLO-680N;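 further: cell viability assay used to measure inhibition of COLO-680N cell growth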
Description: SANGER: Inhibition of human COLO-680N cell growth in a cell viability assay.

GP5d = conditions: Homo sapiens, GP5d;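 further: growth inhibition of human GP5d cells, read out with a cell viability assay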
Description: SANGER: Inhibition of human GP5d cell growth in a cell viability assay.

CAL-54 = conditions: Homo sapiens, CAL-54;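 further: growth inhibition of CAL-54 cells, read out by a viability measurement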
Description: SANGER: Inhibition of human CAL-54 cell growth in a cell viability assay.

IGR-1 = conditions: Homo sapiens, IGR-1;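 further: growth inhibition of human IGR-1 cells, read out with a cell viability assay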
Description: SANGER: Inhibition of human IGR-1 cell growth in a cell viability assay.

SW1463 = conditions: Homo sapiens, SW1463;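 further: growth inhibition of SW1463 cells, determined with a cell viability assay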
Description: SANGER: Inhibition of human SW1463 cell growth in a cell viability assay.

NCI-H1563 = conditions: Homo sapiens, NCI-H1563;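 further: growth inhibition of human NCI-H1563 cells, read out with a cell viability assay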
Description: SANGER: Inhibition of human NCI-H1563 cell growth in a cell viability assay.

HO-1-N-1 = conditions: Homo sapiens, HO-1-N-1;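 further: growth inhibition of human HO-1-N-1 cells, read out with a cell viability assay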
Description: SANGER: Inhibition of human HO-1-N-1 cell growth in a cell viability assay.

OVCAR-3 = conditions: Homo sapiens, OVCAR-3;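 further: growth inhibition of human OVCAR-3 cells, determined by a cell viability assay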
Description: SANGER: Inhibition of human OVCAR-3 cell growth in a cell viability assay.

PC-3 = conditions: Homo sapiens, PC-3
Description: SANGER: Inhibition of human PC-3 cell growth in a cell viability assay.

HuP-T3 = conditions: Homo sapiens, HuP-T3;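 further: HuP-T3 cell growth inhibition, read out with a cell viability assay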
Description: SANGER: Inhibition of human HuP-T3 cell growth in a cell viability assay.

RO82-W-1 = conditions: Homo sapiens, RO82-W-1;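 further: growth inhibition of human RO82-W-1 cells, measured with a cell viability assay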
Description: SANGER: Inhibition of human RO82-W-1 cell growth in a cell viability assay.

VM-CUB-1 = conditions: Homo sapiens, VM-CUB-1;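 further: cell viability assay measuring growth inhibition of the human VM-CUB-1 cell line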
Description: SANGER: Inhibition of human VM-CUB-1 cell growth in a cell viability assay.

NCI-H596 = conditions: Homo sapiens, NCI-H596;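 further: growth inhibition of NCI-H596 cells, read out with a cell viability assay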
Description: SANGER: Inhibition of human NCI-H596 cell growth in a cell viability assay.

HN = conditions: Homo sapiens, HN
Description: SANGER: Inhibition of human HN cell growth in a cell viability assay.

HT-1080 = conditions: Homo sapiens, HT-1080
Description: SANGER: Inhibition of human HT-1080 cell growth in a cell viability assay.

RVH-421 = conditions: Homo sapiens, RVH-421
Description: SANGER: Inhibition of human RVH-421 cell growth in a cell viability assay.

BXPC-3 = conditions: Homo sapiens, BXPC-3;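 further: growth inhibition of human BxPC-3 cells, read out by a cell viability assay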
Description: SANGER: Inhibition of human BxPC-3 cell growth in a cell viability assay.

CAKI-1 = conditions: Homo sapiens, CAKI-1;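 further: growth inhibition of CAKI-1 cells, measured by a cell viability assay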
Description: SANGER: Inhibition of human CAKI-1 cell growth in a cell viability assay.

Compound	pIC50 (MEL-HO)	pIC50 (M059J)	pIC50 (NCI-H28)	pIC50 (SK-LU-1)	pIC50 (Kasumi 1)	pIC50 (BCPAP)	pIC50 (GMS-10)	pIC50 (CAL-85-1)	pIC50 (NCI-H630)	pIC50 (KYSE-510)	pIC50 (NCI-H2052)	pIC50 (OC-314)	pIC50 (SNU-387)	pIC50 (KNS-62)	pIC50 (HCC1419)	pIC50 (GAMG)	pIC50 (COLO-680N)	pIC50 (GP5d)	pIC50 (CAL-54)	pIC50 (IGR-1)	also measured
CO[C@H]1C[C@@H]2CC[C@@H](C)[C@@](O)(O2)C(=O)C(=O)N2CCCC[C@H]2C(=O)O[C@H]([C@H](C)C[C@@H]2CC[C@@H](OC(=O)C(C)(CO)CO)[C@H](OC)C2)CC(=O)[C@H](C)/C=C(\C)[C@@H](O)[C@@H](OC)C(=O)[C@H](C)C[C@H](C)/C=C/C=C/C=C/1C [TEMSIROLIMUS]	7.47	6.93	< 6.70	6.99	7.25	7.23	< 6.70	< 6.70	< 6.70	< 6.70	< 6.70	7.75	6.76	7.30	7.59	8.42	< 6.70	< 6.70	6.93	< 6.70	pIC50 (SW1463): < 6.70; pIC50 (NCI-H1563): 6.98; pIC50 (HO-1-N-1): 8.09; pIC50 (OVCAR-3): < 6.70; pIC50 (PC-3): 8.04; pIC50 (HuP-T3): < 6.70; pIC50 (RO82-W-1): < 6.70; pIC50 (VM-CUB-1): 7.90; pIC50 (NCI-H596): < 6.70; pIC50 (HN): < 6.70; pIC50 (HT-1080): 7.75; pIC50 (RVH-421): 6.73; pIC50 (BXPC-3): < 6.70; pIC50 (CAKI-1): 7.16
Nc1cccc2c1CN(C1CCC(=O)NC1=O)C2=O (stereo not drawn) [LENALIDOMIDE]	< 5.30	< 5.30	< 5.30	< 5.30	< 5.30	< 5.30	< 5.30	< 5.30	< 5.30	< 5.30	< 5.30	< 5.30	< 5.30	< 5.30	< 5.30	< 5.30	< 5.30	< 5.30	< 5.30	< 5.30	pIC50 (SW1463): < 5.30; pIC50 (NCI-H1563): < 5.30; pIC50 (HO-1-N-1): < 5.30; pIC50 (OVCAR-3): < 5.30; pIC50 (PC-3): < 5.30; pIC50 (HuP-T3): < 5.30; pIC50 (RO82-W-1): < 5.30; pIC50 (VM-CUB-1): < 5.30; pIC50 (NCI-H596): < 5.30; pIC50 (HN): < 5.30; pIC50 (HT-1080): < 5.30; pIC50 (RVH-421): < 5.30; pIC50 (BXPC-3): < 5.30; pIC50 (CAKI-1): < 5.30
